Experimental data: PMC10407959 (Journal of medicinal chemistry, 2023)
Entries after “also recorded” stand apart in the source; their conditions may differ. Like-named read-outs stand apart in the source and are kept apart here.

Columns and labels:
mP2Y14R = biological target: T1, mP2Y14R (Mus musculus, UniProt Q9ESG6); assay: whole-cell fluorescent binding assay at mP2Y14R expressed in HEK-293 cells
T1 sequence (Q9ESG6 1-338): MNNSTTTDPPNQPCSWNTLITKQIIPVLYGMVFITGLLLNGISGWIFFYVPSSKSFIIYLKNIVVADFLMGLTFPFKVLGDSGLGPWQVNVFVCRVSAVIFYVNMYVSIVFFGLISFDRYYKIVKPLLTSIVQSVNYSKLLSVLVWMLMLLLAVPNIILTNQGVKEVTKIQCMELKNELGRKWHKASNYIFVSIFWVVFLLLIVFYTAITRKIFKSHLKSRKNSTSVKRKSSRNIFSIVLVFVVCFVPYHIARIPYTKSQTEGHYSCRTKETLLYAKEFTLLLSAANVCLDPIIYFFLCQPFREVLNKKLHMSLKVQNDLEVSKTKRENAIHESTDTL

hP2Y14R [1] = biological target: T2, hP2Y14R (Homo sapiens, UniProt Q15391); assay: whole-cell fluorescent competitive binding assay
T2 sequence (Q15391 1-338): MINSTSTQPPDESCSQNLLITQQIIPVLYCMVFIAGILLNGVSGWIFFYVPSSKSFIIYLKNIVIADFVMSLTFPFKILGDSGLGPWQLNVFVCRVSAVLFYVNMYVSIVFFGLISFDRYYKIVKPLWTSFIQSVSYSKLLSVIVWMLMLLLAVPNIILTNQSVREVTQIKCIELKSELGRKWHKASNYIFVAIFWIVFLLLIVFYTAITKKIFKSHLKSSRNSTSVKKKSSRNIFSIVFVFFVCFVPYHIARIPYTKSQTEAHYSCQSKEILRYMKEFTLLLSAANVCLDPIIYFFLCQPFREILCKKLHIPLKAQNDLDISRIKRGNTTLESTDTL

mouse CCI model = assay: mouse model of chronic neuropathic pain; details: for reversal of mechano-allodynia (paw withdrawal threshold): day 7 post-sciatic nerve constriction, adult male mice
5-HT5A = 5-HT5A (Homo sapiens, UniProt P47898); assay: PDSP off-target radioligand binding
[2] = system: protease-mediated mouse model of allergic asthma; assay: protease-mediated mouse model of allergic asthma, BAL fluid cells; details: 10 mg/kg i.p., C57BL/6J mice
[3] = pharmacokinetics of double prodrug 62 p.o. in female CD1 mice; details: 62 by oral gavage (p.o.)
[4] = in mouse; cited from earlier work
[5] = system: Nonhuman primate (chimpanzee) P2Y14R; details: read-out: IC50 (P2Y14R), ref Belley et al.[15]; cited from earlier work
hP2Y14R [6] = biological target: T2, hP2Y14R; assay: fluorescent binding saturation study in whole CHO cells expressing hP2Y14R; details: final concentrations of 53 of 2, 100, 500, and 20,000 nM
[7] = male, Wistar, rat, in vivo, ip
[8] = pharmacokinetics and tolerability in male Wistar rats
[9] = system: cardiac ischemia-reperfusion (I/R) injury; assay: cardiac ischemia-reperfusion; format: in vivo, mouse; details: 2 mg/kg/day minipump
[10] = pharmacokinetics of mono-ester prodrug 63 s.c. in female CD1 mice; details: 10 mg/kg s.c.
σ2 receptor = biological target: T3, σ2 receptor (Rattus norvegicus, UniProt Q5U3Y7); assay: PDSP off-target radioligand binding; details: read-out: Ki, σ2 receptor; NIMH PDSP
T3 sequence (Q5U3Y7 1-176): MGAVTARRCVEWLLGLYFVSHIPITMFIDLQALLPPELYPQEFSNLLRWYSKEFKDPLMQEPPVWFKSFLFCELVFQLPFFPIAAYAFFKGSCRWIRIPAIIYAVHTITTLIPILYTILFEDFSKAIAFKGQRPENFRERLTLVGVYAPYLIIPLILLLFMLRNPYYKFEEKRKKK

serotonin 5-HT1B = serotonin 5-HT1B (Homo sapiens, UniProt P28222); assay: PDSP off-target radioligand binding; details: read-out: Ki, serotonin 5-HT1B; NIMH PDSP
σ1 receptor = σ1 receptor (Cavia porcellus, UniProt Q60492); assay: PDSP off-target radioligand binding; details: read-out: Ki, σ1 receptor; NIMH PDSP
HPLC-based Log D7.4 = format: physicochemical; details: from HPLC retention factors, calibration with five standards

Sequence of 5-HT5A (P47898 whole entry, species assumed): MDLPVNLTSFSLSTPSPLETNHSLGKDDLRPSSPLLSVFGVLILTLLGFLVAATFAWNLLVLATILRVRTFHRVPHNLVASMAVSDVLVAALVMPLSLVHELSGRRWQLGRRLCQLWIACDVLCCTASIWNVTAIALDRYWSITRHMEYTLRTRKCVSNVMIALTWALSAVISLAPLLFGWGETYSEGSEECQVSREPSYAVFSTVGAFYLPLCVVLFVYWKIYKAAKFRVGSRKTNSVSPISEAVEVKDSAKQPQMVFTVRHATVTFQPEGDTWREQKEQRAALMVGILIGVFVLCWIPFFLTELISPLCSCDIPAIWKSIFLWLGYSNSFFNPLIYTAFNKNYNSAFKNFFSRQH
Sequence of serotonin 5-HT1B (P28222 whole entry): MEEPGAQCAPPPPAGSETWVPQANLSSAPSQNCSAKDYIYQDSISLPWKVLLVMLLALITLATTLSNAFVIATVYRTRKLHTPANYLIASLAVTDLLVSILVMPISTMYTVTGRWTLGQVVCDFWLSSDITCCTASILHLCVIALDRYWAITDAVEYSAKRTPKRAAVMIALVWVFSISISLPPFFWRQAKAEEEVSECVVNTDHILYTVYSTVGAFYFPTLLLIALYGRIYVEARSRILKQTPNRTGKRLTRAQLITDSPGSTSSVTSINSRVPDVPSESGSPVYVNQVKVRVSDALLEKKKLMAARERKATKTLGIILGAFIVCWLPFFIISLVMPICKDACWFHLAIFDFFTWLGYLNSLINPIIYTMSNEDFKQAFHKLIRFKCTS
Sequence of σ1 receptor (Q60492 whole entry): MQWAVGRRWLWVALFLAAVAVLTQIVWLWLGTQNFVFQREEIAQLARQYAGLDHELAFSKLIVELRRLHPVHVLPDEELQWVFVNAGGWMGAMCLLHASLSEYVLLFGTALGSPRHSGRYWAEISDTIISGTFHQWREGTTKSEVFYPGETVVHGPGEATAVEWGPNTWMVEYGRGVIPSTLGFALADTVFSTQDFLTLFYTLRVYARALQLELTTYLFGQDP

With `O=C(O)c1cc(-c2ccc(C3=C[C@H]4CNC[C@@H]4C3)cc2)c2ccc(-c3ccc(C(F)(F)F)cc3)cc2c1` (racemic) [compound 12, rac-4-(4-((3aR,6aR)-1,2,3,3a,4,6a-Hexahydrocyclopenta[c]-pyrrol-5-yl)phenyl)-7-(4-(trifluoromethyl)phenyl)-2-naphthoic Acid] the “more potent at the mP2Y14R (vs human)” value (mP2Y14R) was 3 fold.
In the case of `O=C(Cc1ccc(C(F)(F)F)cc1)Nc1cccc(-c2nc3cc(Cl)ccc3o2)c1` [4a, reference compound], the binding inhibition (hP2Y14R [1]; up to 100 μM, tracer 52, hP2Y14R-expressing CHO cells) is reported as “no binding inhibition”.
In the case of `CCOC(=O)N1C[C@H]2C[C@@H]1C[C@@H]2c1ccc(-c2cc(C(=O)OCC(=O)N(C)C)cc3cc(-c4ccc(C(F)(F)F)cc4)ccc23)cc1` [compound 64, reference compound], the “reversal of mechano-allodynia (paw withdrawal threshold)” value (from here on “reversal of mechano-allodynia”) (mouse CCI model; i.p. injection) is reported as “provided benefit”.
For `O=C(O)c1cc(-c2ccc(C3CCCNCC3)cc2)c2ccc(-c3ccc(C(F)(F)F)cc3)cc2c1` (stereo not shown) [compound 16, 4-(4-(Azepan-4-yl)phenyl)-7-(4-(trifluoromethyl)phenyl)-2-naphthoic Acid], the Ki (5-HT5A) was 4800 nM and the “reversal of mechano-allodynia” value (mouse CCI model; i.p. injection) was “provided benefit”.
In the case of `CCOC(=O)N1C[C@H]2C[C@@H](C1)[C@@]2(O)c1ccc(-c2cc(C(=O)OCC(=O)N(C)C)cc3cc(-c4ccc(C(F)(F)F)cc4)ccc23)cc1` [compound 50, Ethyl (1R,5S,6r)-6-(4-(3-((2-(Dimethylamino)-2-oxoethoxy)-carbonyl)-6-(4-(trifluoromethyl)phenyl)naphthalen-1-yl)phenyl)-6-hydroxy-3-azabicyclo[3.1.1]heptane-3-carboxylate], the “airway eosinophilia (eosinophils in BAL fluid)” value (“airway eosinophilia” below) [2] is reported as “lack of activity” and the “reversal of mechano-allodynia” value (mouse CCI model; 10 μmol/kg, p.o. (oral gavage)) is reported as “reversed the mechano-allodynia”.
For `CCOC(=O)N1CCC(c2ccc(-c3cc(C(=O)OCC(=O)N(C)C)cc4cc(-c5ccc(C(F)(F)F)cc5)ccc34)cc2)CC1` [compound 62, Ethyl 4-(4-(3-((2-(Dimethylamino)-2-oxoethoxy)carbonyl)-6-(4-(trifluoromethyl)phenyl)naphthalen-1-yl)phenyl)piperidine-1-carboxylate], the oral bioavailability [3] was 6.9 % F, the peak concentration [3] was ~ 2 μg/mL and the “reversal of mechano-allodynia” value (mouse CCI model; i.p. injection) was “provided benefit”.
In the case of `O=C(O)c1cc(-c2ccc(C3CCNCC3)cc2)c2ccc(-c3ccc(C(F)(F)F)cc3)cc2c1` [compound 1, 4-(4-(Piperidin-4-yl)phenyl)-7-(4-(trifluoromethyl)phenyl)-2-naphthoic Acid, reference compound], the oral bioavailability [4] is given as 5 % F, the “airway eosinophilia” value [2] is given as “reduce airway eosinophilia” and the “lymphocytes in the BAL fluid” value [2] is given as “trend toward lower lymphocytes”. For the same molecule, the IC50 [5] was 2.2 nM and the “reversal of mechano-allodynia” value (mouse CCI model; 10 μmol/kg, p.o. (oral gavage)) was “full reversal of mechano-allodynia; also recorded: reversed the mechano-allodynia”.
For `O=C(O)c1cc(-c2ccc(C3(O)C[C@H]4CNC[C@@H]4C3)cc2)c2ccc(-c3ccc(C(F)(F)F)cc3)cc2c1` (racemic) [compound 11, rac-4-(4-((3aR,6aR)-5-Hydroxyoctahydrocyclopenta[c]pyrrol-5-yl)phenyl)-7-(4-(trifluoromethyl)phenyl)-2-naphthoic Acid], the Ki (5-HT5A) was 2400 nM and the “reversal of mechano-allodynia” value (mouse CCI model; i.p. injection) was “maintained over 3 h”.
In the case of `C[Si]1(C)C2=CC(=[N+]3CCC3)C=CC2=C(c2cc(C(=O)NCCCCCCn3cc(CCCCN4CCC(c5ccc(-c6cc(C(=O)O)cc7cc(-c8ccc(C(F)(F)F)cc8)ccc67)cc5)CC4)nn3)ccc2C(=O)[O-])c2ccc(N3CCC3)cc21` [compound 53], the “specific binding in whole CHO cells expressing the hP2Y14R” value (hP2Y14R [6]) is reported as “did not demonstrate potent specific binding”.
With `O=C(O)c1cc(-c2ccc([C@]3(O)[C@@H]4CNC[C@H]3C4)cc2)c2ccc(-c3ccc(C(F)(F)F)cc3)cc2c1` [compound 15, 4-(4-((1R,5S,6r)-6-Hydroxy-3-azabicyclo[3.1.1]heptan-6-yl)-phenyl)-7-(4-(trifluoromethyl)phenyl)-2-naphthoic Acid] the “ligand efficiency (LE)” value (hP2Y14R [1]) was 0.311, the Maximal plasma concentration ([7]; 1 mg/kg) was 0.50 µM and the Maximal plasma concentration ([7]; 3 mg/kg) was 1.3 µM. The Maximal plasma concentration ([7]; 10 mg/kg) was 4.0 µM, the “mP2Y14R affinity higher than reference antagonist 1” value (mP2Y14R) was 4.5 fold and the “mortality or morbidity / tolerability” value ([8]; male Wistar rats, 1, 3, and 10 mg/kg i.p. and 0.5 mg/kg i.v.) was “well tolerated”. The half-life ([8]; male, Wistar, rat, plasma, ip, 3 mg/kg) was 4.3 h, the “airway eosinophilia” value [2] was “demonstrated significant protection” and the “lymphocytes in the BAL fluid” value [2] was “trend toward lower lymphocytes”. The “reversal of mechano-allodynia” value (mouse CCI model; 10 μmol/kg, p.o. (oral gavage)) was “nearly complete protection at 1 h; also recorded: reversed the mechano-allodynia”, the “reversal of mechano-allodynia” value (mouse CCI model; i.p. injection) was “full reversal of mechano-allodynia within 0.5 h” and the “duration of the protection” value (mouse CCI model; oral gavage, 10 μmol/kg, 1 and 15 in the same CCI experiment) was “longer than protection by 1”. The “protection against heart I/R injury” value [9] was “no protection against heart I/R injury”.
For `CN(C)C(=O)COC(=O)c1cc(-c2ccc([C@H]3C[C@H]4C[C@@H]3CN4)cc2)c2ccc(-c3ccc(C(F)(F)F)cc3)cc2c1` [compound 63, reference compound], the “in vivo cleavage of prodrug to active drug 2b” value [10] was “rapid cleavage of the ester group” and the “reversal of mechano-allodynia” value (mouse CCI model; 10 μmol/kg, p.o. (oral gavage)) was “fully efficacious within 1 h”.
With “Mixture of 4-(4-(2,3,6,7-Tetrahydro-1H-azepin-4-yl)phenyl)-7-(4-(trifluoromethyl)phenyl)-2-naphthoic Acid and 4-(4-(2,5,6,7-Tetra-hydro-1H-azepin-4-yl)phenyl)-7-(4-(trifluoromethyl)phenyl)-2-naphthoic Acid [compound 17]” the Ki (σ2 receptor) was 3900 nM, the Ki (5-HT5A; read-out: Ki, 5-HT5A, NIMH PDSP) was 4000 nM and the Ki (serotonin 5-HT1B) was 4100 nM. The Ki (hP2Y14R [1]) was 6.92 nM, the IC50 (hP2Y14R [1]; read-out: IC50 (nM), affinity at hP2Y14R, whole-cell fluorescent binding, tracer 52 (20 nM), hP2Y14R-CHO cells, n = 3–4 unless noted) was 11.9 ± 3.6 nM and the Ki (σ1 receptor) was 840 nM. The “Log D7.4” value (HPLC-based Log D7.4) was 2.2±0.0.
